Measurements from patent publication US20030031715A1, “Pharmaceutical applications of hydrotropic agents, polymers thereof, and hydrogels thereof” (priority 2000, published 2003).
In brackets after ≈: the same amount, converted by molar mass.

What was measured:
Assay in all cases: Antitumor cytotoxicity GI50, MTT bioassay
Format in all cases: cell-based
A-498 = conditions: Homo sapiens, A498, A-498 (kidney)
Source text: (§1) Purdue Cancer Center Cell Culture Laboratory has provided bioassay service for measuring antitumor cytotoxicity for many years. […] The standard bioassay is done in 96-well microtiter plates using MTT [3-(4,5-dimethylthiazole-2-yl)-2,5-diphenytetrazolium bromide]. MTT is cleaved in the mitochondria of live cells to produce a dark blue formazan product. […] Adriamycin is used as an internal reference antitumor agent for the quality control of the standardized cytotoxicity assay.
(§2) The results of cytotoxicity evaluations are compared with those of animal experiments to examine what formulations were optimal for each experiment.

A-549 = conditions: Homo sapiens, A549, A-549 (lung)
Source text: as §1, §2

HT-29 = conditions: Homo sapiens, HT-29 (colon)
Source text: as §1, §2

MCF-7 = conditions: Homo sapiens, MCF7, MCF-7 (breast)
Source text: as §1, §2

PC-3 = conditions: Homo sapiens, PC-3 (prostate)
Source text: as §1, §2

PaCa-2 = conditions: Homo sapiens, PaCa-2 (pancreas)
Source text: as §1, §2

In the case of `COc1cccc2c1C(=O)c1c(O)c3c(c(O)c1C2=O)C[C@@](O)(C(=O)CO)C[C@@H]3O[C@H]1C[C@H](N)[C@H](O)[C@H](C)O1` [Adriamycin], the GI50 (A-498) is reported as 0.005 µg/mL (≈ 0.0092 µM), the GI50 (A-549) is reported as 0.005 µg/mL (≈ 0.0092 µM) and the GI50 (HT-29) is reported as 0.03 µg/mL (≈ 0.0552 µM). The GI50 (MCF-7) was 0.2 µg/mL (≈ 0.368 µM), the GI50 (PC-3) was 0.02 µg/mL (≈ 0.0368 µM) and the GI50 (PaCa-2) was 0.005 µg/mL (≈ 0.0092 µM).
